In patent US9145415B2, “Nitrogen-containing heterocyclic compound or salt thereof” (FUJIFILM Corporation, priority 2012, dated 2015):

Assays:
[1] = molecular target: T1, human FLT3 protein (FLT3 (WT)) (Homo sapiens, UniProt P36888); assay: FLT3 inhibition test (FLT3 enzyme inhibition, time-resolved fluorescence of substrate peptide phosphorylation); type: biochemical; conditions: GST-fused human FLT3 (564 to 993 aa), ATP 50 μM; read-out: FLT3 (WT) enzyme inhibition activity
T1 construct: human FLT3 protein (intracellular region, 564 to 993 aa); GST; purchased Carna Biosciences; host or cells: baculovirus expression system
T1 sequence (P36888 564-993): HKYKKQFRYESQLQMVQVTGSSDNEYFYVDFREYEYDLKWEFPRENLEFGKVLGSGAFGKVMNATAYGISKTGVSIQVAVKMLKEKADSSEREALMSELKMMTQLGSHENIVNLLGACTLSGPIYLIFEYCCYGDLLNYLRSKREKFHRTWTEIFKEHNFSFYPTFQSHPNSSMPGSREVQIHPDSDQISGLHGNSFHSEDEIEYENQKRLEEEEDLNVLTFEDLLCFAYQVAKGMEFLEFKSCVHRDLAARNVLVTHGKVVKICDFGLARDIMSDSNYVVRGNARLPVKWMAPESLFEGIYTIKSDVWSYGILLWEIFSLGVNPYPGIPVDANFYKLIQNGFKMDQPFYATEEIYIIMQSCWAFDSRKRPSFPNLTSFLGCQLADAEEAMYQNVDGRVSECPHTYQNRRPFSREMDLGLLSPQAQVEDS
In short: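 Substrate peptide phosphorylation detected by time-resolved fluorescence after a 30 min kinase reaction at 25° C with 50 μM ATP (final). Beforehand, compound and FLT3 (WT, 1.2 μg) stood 15 min at 25° C in HEPES buffer pH 7.5 containing MgCl2, NaCl, BSA and DTT.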

MV4-11 cells = assay: Leukemia cell proliferation inhibition test (ATPlite), MV4-11; type: cell-based; conditions: Homo sapiens, MV4-11, 72 h, MV4-11, 72 hours culture, ATPlite; GI50 per method; read-out: MV4-11 cell proliferation inhibition effect
In short: (§1)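 Proliferation inhibition is quantified from total cellular ATP, measured by luciferase luminescence, after cells grow with compound for 72 hours. The GI50 is the concentration giving half the signal of the 0.1% DMSO control, fitted to a sigmoid curve from duplicate points.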

Molm-13 cells = assay: Leukemia cell proliferation inhibition test (ATPlite), Molm-13; type: cell-based; conditions: Homo sapiens, MOLM-13, 72 h, Molm-13, 72 hours culture, ATPlite; GI50 per method; read-out: MOLM13 cell proliferation inhibition effect
In short: as §1

Row | IC50 [1] [nM] | IC50 (MV4-11 cells) [nM] | IC50 (Molm-13 cells) [nM] | SMILES
1 | < 10 | < 10 | < 10 | C[C@@H](C(=O)NCCCC#Cc1cnc(Nc2ccc3cnn(C)c3c2)nc1NC1CC1)N(C)C(=O)/C=C/CN(C)C [Compound 10-58]
2 | < 10 | < 10 | < 10 | COCCCNc1nc(Nc2ccc3cnn(C)c3c2)ncc1C#CCCCNC(=O)[C@H](C)N(C)C(=O)/C=C/CN(C)C [Compound 10-59]
3 | < 10 | < 10 | < 10 | CNc1nc(Nc2ccc3[nH]ncc3c2)ncc1C#CCCCNC(=O)[C@H](C)N(C)C(=O)/C=C/CN(C)C [Compound 10-60]
4 | < 10 | < 10 | < 10 | CCNc1nc(Nc2ccc3[nH]ncc3c2)ncc1C#CCCCNC(=O)[C@H](C)N(C)C(=O)/C=C/CN(C)C [Compound 10-61]
5 | < 10 | < 10 | < 10 | COCCCNc1nc(Nc2ccc3[nH]ncc3c2)ncc1C#CCCCNC(=O)[C@H](C)N(C)C(=O)/C=C/CN(C)C [Compound 10-62]
6 | < 10 | < 10 | < 10 | CNc1nc(Nc2ccc3cn[nH]c3c2)ncc1C#CCCCNC(=O)[C@H](C)N(C)C(=O)/C=C/CN(C)C [Compound 10-63]
7 | < 10 | < 10 | < 10 | CCNc1nc(Nc2ccc3cn[nH]c3c2)ncc1C#CCCCNC(=O)[C@H](C)N(C)C(=O)/C=C/CN(C)C [Compound 10-64]
8 | < 10 | < 10 | < 10 | COCCCNc1nc(Nc2ccc3cn[nH]c3c2)ncc1C#CCCCNC(=O)[C@H](C)N(C)C(=O)/C=C/CN(C)C [Compound 10-65]
9 | < 10 | < 10 | < 10 | CNc1nc(Nc2ccc3[nH]ncc3c2)ncc1C#CCCCNC(=O)[C@@H]1CCCN1C(=O)/C=C/CN(C)C [Compound 10-66, (S,E)-N-(5-(2-((1H-Indazol-5-yl)amino)-4-(methylamino)pyrimidin-5-yl)-4-pentyn-1-yl)-1-(4-(dimethylamino)-2-butenoyl)pyrrolidine-2-carboxamide]
10 | < 10 | < 10 | < 10 | CCNc1nc(Nc2ccc3[nH]ncc3c2)ncc1C#CCCCNC(=O)[C@@H]1CCCN1C(=O)/C=C/CN(C)C [Compound 10-67, (S,E)-N-(5-(2-((1H-Indazol-5-yl)amino)-4-(ethylamino)pyrimidin-5-yl)-4-pentyn-1-yl)-1-(4-(dimethylamino)-2-butenoyl)pyrrolidine-2-carboxamide]
11 | < 10 | < 10 | < 10 | COCCCNc1nc(Nc2ccc3[nH]ncc3c2)ncc1C#CCCCNC(=O)[C@@H]1CCCN1C(=O)/C=C/CN(C)C [Compound 10-68, (S,E)-N-(5-(2-((1H-Indazol-5-yl)amino)-4-((3-methoxypropyl)amino)pyrimidin-5-yl)-4-pentyn-1-yl)-1-(4-(dimethylamino)-2-butenoyl)pyrrolidine-2-carboxamide]
12 | < 10 | < 10 | < 10 | CNc1nc(Nc2ccc3cn[nH]c3c2)ncc1C#CCCCNC(=O)[C@@H]1CCCN1C(=O)/C=C/CN(C)C [Compound 10-69]
13 | < 10 | < 10 | < 10 | CCNc1nc(Nc2ccc3cn[nH]c3c2)ncc1C#CCCCNC(=O)[C@@H]1CCCN1C(=O)/C=C/CN(C)C [Compound 10-70]
14 | < 10 | < 10 | < 10 | COCCCNc1nc(Nc2ccc3cn[nH]c3c2)ncc1C#CCCCNC(=O)[C@@H]1CCCN1C(=O)/C=C/CN(C)C [Compound 10-71]
15 | < 10 | < 10 | < 10 | C[C@@H](C(=O)NCCCC#Cc1cnc(Nc2ccc3[nH]ncc3c2)nc1NC1CC1)N(C)C(=O)/C=C/CN(C)C [Compound 10-72]
16 | < 10 | < 10 | < 10 | C[C@@H](C(=O)NCCCC#Cc1cnc(Nc2ccc3cn[nH]c3c2)nc1NC1CC1)N(C)C(=O)/C=C/CN(C)C [Compound 10-73]
17 | < 10 | < 10 | < 10 | CN(C)C/C=C/C(=O)N1CCC[C@H]1C(=O)NCCCC#Cc1cnc(Nc2ccc3[nH]ncc3c2)nc1NC1CC1 [Compound 10-74]

Row | IC50 [1] [nM] | IC50 (MV4-11 cells) [nM] | IC50 (Molm-13 cells) [nM] | SMILES
18 | < 10 | < 10 | < 10 | CN(C)C/C=C/C(=O)N1CCC[C@H]1C(=O)NCCCC#Cc1cnc(Nc2ccc3cn[nH]c3c2)nc1NC1CC1 [Compound 10-75]
19 | 10 to 100 | 10 to 100 | 10 to 100 | CCCNc1nc(NC)ncc1C#CCCCNC(=O)[C@H](C)N(C)C(=O)/C=C/CN(C)C [Compound 11-1, (S,E)-4-(dimethylamino)-N-methyl-N-(1-((5-(2-(methylamino)-4-(propylamino)pyrimidin-5-yl)-4-pentyn-1-yl)amino)-1-oxopropan-2-yl)-2-butenamide]
20 | 10 to 100 | 100 to 1000 | 100 to 1000 | CCCNc1nc(NCC)ncc1C#CCCCNC(=O)[C@H](C)N(C)C(=O)/C=C/CN(C)C [Compound 11-3]
21 | < 10 | 10 to 100 | 10 to 100 | C[C@@H](C(=O)NCCCC#Cc1cnc(Nc2ccc(F)nc2)nc1N1CCCC1)N(C)C(=O)/C=C/CN(C)C [Compound 11-8]
22 | < 10 | 10 to 100 | 10 to 100 | C[C@@H](C(=O)NCCCC#Cc1cnc(Nc2ccc(F)nc2)nc1N1CCOCC1)N(C)C(=O)/C=C/CN(C)C [Compound 11-9]
23 | < 10 | < 10 | 10 to 100 | CCCNc1nc(Nc2cccc(OC(F)(F)F)c2)ncc1C#CCCCNC(=O)[C@H](C)N(C)C(=O)/C=C/CN(C)C [Compound 11-10]
24 | < 10 | 10 to 100 | 10 to 100 | CCCNc1nc(Nc2cccc(C(F)(F)F)c2)ncc1C#CCCCNC(=O)[C@H](C)N(C)C(=O)/C=C/CN(C)C [Compound 11-11]
25 | < 10 | < 10 | < 10 | CCCNc1nc(Nc2ccccc2)ncc1C#CCCCNC(=O)[C@H](C)N(C)C(=O)/C=C/CN(C)C [Compound 12-1, (S,E)-4-(dimethylamino)-N-methyl-N-(1-oxo-1-((5-(2-(phenylamino)-4-(propylamino)pyrimidin-5-yl)-4-pentyn-1-yl)amino)propan-2-yl)-2-butenamide]
26 | < 10 | < 10 | 10 to 100 | CCCNc1nc(Nc2cccc(Cl)c2)ncc1C#CCCCNC(=O)[C@H](C)N(C)C(=O)/C=C/CN(C)C [Compound 12-2, (S,E)-N-(1-((5-(2-((3-chlorophenyl)amino)-4-(propylamino)pyrimidin-5-yl)-4-pentyn-1-yl)amino)-1-oxopropan-2-yl)-4-(dimethylamino)-N-methyl-2-butenamide]
27 | < 10 | < 10 | < 10 | CCCNc1nc(Nc2ccc(F)cc2)ncc1C#CCCCNC(=O)[C@H](C)N(C)C(=O)/C=C/CN(C)C [Compound 12-3]
28 | < 10 | 10 to 100 | 10 to 100 | CCCNc1nc(Nc2ccc(C(F)(F)F)cc2)ncc1C#CCCCNC(=O)[C@H](C)N(C)C(=O)/C=C/CN(C)C [Compound 12-5]
29 | 10 to 100 | 10 to 100 | 100 to 1000 | CCCNc1nc(Nc2ccc(OC(F)(F)F)cc2)ncc1C#CCCCNC(=O)[C@H](C)N(C)C(=O)/C=C/CN(C)C [Compound 12-6]
30 | < 10 | 10 to 100 | 10 to 100 | CCCNc1nc(Nc2ccc(C)cc2)ncc1C#CCCCNC(=O)[C@H](C)N(C)C(=O)/C=C/CN(C)C [Compound 12-9]
31 | < 10 | 10 to 100 | 100 to 1000 | CCCNc1nc(Nc2ccccc2F)ncc1C#CCCCNC(=O)[C@H](C)N(C)C(=O)/C=C/CN(C)C [Compound 12-10]
32 | 10 to 100 | 10 to 100 | 10 to 100 | CCCNc1nc(Nc2ccc(Cn3cncn3)cc2)ncc1C#CCCCNC(=O)CN(C)C(=O)/C=C/CN(C)C [Compound 12-11]
33 | 10 to 100 | 10 to 100 | < 10 | CCCNc1nc(Nc2ccc(Cn3ccnn3)cc2)ncc1C#CCCCNC(=O)CN(C)C(=O)/C=C/CN(C)C [Compound 12-12]
34 | < 10 | < 10 | < 10 | C[C@@H](C(=O)Nc1cccc(C#Cc2cnc(NCCc3ccncc3)nc2N2CCOCC2)c1)N(C)C(=O)/C=C/CN(C)C [Compound 12-13, (S,E)-4-(dimethylamino)-N-methyl-N-(1-((3-((4-morpholino-2-((2-(pyridin-4-yl)ethyl)amino)pyrimidin-5-yl)ethynyl)phenyl)amino)-1-oxopropan-2-yl)-2-butenamide]
